Measurements published in patent US5411942A, “Peptide derivative, pharmaceutical preparation containing it and method for treatment of glaucoma” (Carlbiotech Ltd. A/S, priority 1989, dated 1995).
Peptide text beside a SMILES is read from it. * marks the point of attachment. Acm = CC(=O)NC*

What was measured:
blood pressure = conditions: e.g. at 10 mg/kg in rats
anterior sclera = conditions: Ussing chamber, glutathione bicarbonate Ringer's solution
mice = experiment: Intravenous tolerance in mice; assay type: in vivo; conditions: doses as high as 40 mg/kg intravenously
rabbit's eye = conditions: 5% solution as eye drops in rabbit's eye, even after treatment over a month
[1] = system: antibodies in serum samples; conditions: serum of rats treated subcutaneously for one month in large doses
rats [2] = experiment: Subcutaneous toxicity in rats, also prolonged for a month; assay type: in vivo; conditions: subcutaneous administration of similar doses in rats, also prolonged treatment for a month
Salmonella strains = conditions: Ames test on Salmonella strains
rats [3] = experiment: Intravenous tolerance in rats; assay type: in vivo; conditions: doses as high as 40 mg/kg intravenously
[4] = system: stress induced ocular hypertensive rabbits; experiment: Stress induced ocular hypertension in the rabbit eye, treatment started after pressure elevation; assay type: in vivo; conditions: for IOP lowering efficiency in relation to Timolol / Initial Pressure (Unstressed) / Pressure after 5 days of stress (Treatment starts) / Pressure after 10 days of stress (5 days of treatment) / Change in IOP: Example 6; for Initial Pressure (Unstressed): baseline before stress; for Pressure after 5 days of stress (Treatment starts) / Pressure after 5 days: before treatment; for Pressure after 10 days of stress (5 days of treatment): stress continued; for Change in IOP: day 10 versus day 5; for Pressure after 5 days / Initial Pressure / Pressure after 10 days (5 days of treatment): Example 8; for Pressure after 5 days: after 5 day stress induction; for Initial Pressure: baseline; for Pressure after 10 days (5 days of treatment): 2 drops four times for 5 days
Experimental: (§1) The main feature of this clinical model is a stress induced elevation of the intraocular pressure in the rabbit eye above the initial and normal value. The stress is exerted, i.e. applied, in the form of measuring the pressure (at 12 hour intervals) with the help of a SHIOTZ-Tonometer, which is loaded with 7.5 grams.
(§2) Adult rabbits of random breed and sex in groups of n=3-10 were employed. Weight 2,5-3,0 kg. The peptide was a freeze-dried powder, and was applied to the rabbit eye as a powder, or as drops, dissolved in 0.9% NaCl aqueous solution. Positive control was the commercial glaucoma drugs, either timololor pilocarpin, and negative control was 0.9% NaCl solution in water.
on stress induced ocular hypertensive rabbits. […] The amount of peptide per treatment was thus 3.75 mg which corresponds on a molar basis to the amount of Timolol used per treatment.
The local treatment was started on day 5 of glaucoma induction (i.e. afer 10 stress units), and the stress, that is the trauma, was continued during the treatment with the peptide.
A 1% and 0.1% solution of the peptide in 0.9% NaCl aqueous solution was applied four times (2 drops each time) for 5 days after an initial 5 day stress induction period. (Stress units at 12 hour intervals).

[5] = system: experimentally hypertensive rabbit eye; experiment: Antagonizing effect on stress induced intraocular pressure in the rabbit eye, treatment simultaneous with stress; assay type: in vivo; conditions: for Change in pressure / Pressure after 5 1/5 / Initial Pressure: Example 9; for Change in pressure / Pressure after 5 1/5: 11 stress units, peptides as drops of 0.5% solution 3× daily; for Initial Pressure: baseline
Experimental: as §1, §2
20 mg peptide was dissolved in 0.6 ml 0.9% NaCl aqueous solution and applied in aliquots of 60 μl four times daily over a period of 2.5 days.
The treatment was started at the beginning of the experiment simultaneously with stress units. Five stress units were applied at 12 hour intervals.
Stress units were applied at 12 hour intervals over a period of 51/2 days, i.e. 11 stress units. The peptides were applied 3× daily over this period as drops of a 0.5% solution in 0.9% NaCl in aqueous solutions.
Stress units were applied at 12 hour intervals over a period of 51/2 days, i.e. 11 stress units. The peptides were applied 3× daily over this period as drops of a 1.0% solution in 0.9% NaCl in aqueous solution.

[6] = system: water load induced hypertension in the rabbit eye; experiment: Water load model, intraocular pressure in rabbits' eyes; assay type: in vivo; conditions: single dose; for AUC: area under Δ IOP-time curve
Experimental: The findings of intraocular pressure lowering effects in the stress induced rabbit model has been confirmed and further studied by using another elevated eye pressure rabbit model. In this model, the widely applied water load model, elevation of the intraocular pressure is achieved by injecting a large volume of sterile water intraperitoneally into the rabbits. Following onset of eye drop treatment in one eye while the other eye is treated with saline placebo, the intraocular pressure of both eyes is then measured at various intervals and the pressure difference between the eyes is taken as an expression of the pharmaceutical effect. In these experiments, pilocarpine, a well-known pressure lowering cholinergic agent, was used as positive control.
The studies utilized a "water load" animal model.
Thirty minutes before drug solution installation, rabbits were injected intraperitonally with 60 ml/kg of sterile distilled water for injection (30° C.) spiked with an antibiotic mixture (Sigma P9032).
At time zero, 50 μl of a drug solution was instilled to one eye and an equal volume of a saline solution was instilled to the other eye. The intraocular pressure in each eye was monitored at the time points indicated. The change in intraocular pressure (IOP) at each time point is computed by subtracting the IOP in the dosed eye from that in the undosed eye.
From these plots was assessed the maximal IOP effect, the time to reach this and the time for returning to a zero or insignificant level of intraocular pressure lowering effect. These figures may be taken as a measure of potency and duration of effect. As a measure of the full pharmaceutical effect at various dose levels was taken a sum figure of the area under the curves (AUC).
A 0.5% solution of the peptides or 2.6% pilocarpine nitrate (positive control) in 0.9% NaCl aqueous solution was applied in one eye and 0.9% Nacl, also acting as negative control in the other eye, an IOP was measured in both eyes for 3 hours.
A 0.25%, 0.5% of 1.0% solution of the peptides in 0.9% aqueous NaCl solution was applied in one eye and 0.9% NaCl to the other eye and IOP was measured in both eyes for 3 hours.

[7] = system: freshly excised bulbar conjunctiva; conditions: Ussing chamber, glutathione bicarbonate Ringer's solution
[8] = system: cultured bovine trabecular meshwork cells; experiment: Cultured bovine trabecular meshwork cells incubated with peptide; assay type: cell-based
Excerpt: The mechanism, or mechanisms, by way of which the peptides according to the invention work, is so far not known in detail and may be of hitherto unknown types or related to some known mechanisms. With the apparent lack of β-blocking effects, other known mechanisms could be effects on the enzyme carbo-anhydrase or effects on aqueous humour outflow. Some indications of mechanisms of the latter type have been found in in vitro studies. […] The significant decrease in glycosamine uptake with normal synthesis of glycoproteins like fibronectin is taken to indicate an influence on the formation of glycosamino glycans, an important parameter in the regulation of outflow of aqueous humour from the eye.

[9] = Example 11, 2.6% pilocarpine nitrate
[10] = 0.5% peptide, 3.75 mg powder 4× daily
[11] = cell cultures incubated with the peptide

**Q.** For `CC(=O)NCSC[C@H](NC(=O)[C@@H](NC(=O)CNC(=O)[C@H](CC(C)C)NC(=O)[C@@H](N)CC(N)=O)C(C)C)C(N)=O` [AsnLeuGlyValCys(Acm)NH2, H-Asn-Leu-Gly-Val-Cys(Acm)-NH2] (H-NLGVC(Acm)-NH2), which “effect on blood pressure” value (blood pressure) is on record?
**A.** The value was “no effect on blood pressure”.

**Q.** What about the penetration through tissue (anterior sclera) of the same compound?
**A.** Its penetration through tissue is “found to penetrate scleral tissue”.

**Q.** What about the “tolerance of intravenous doses” value (mice) of the same compound?
**A.** Its value is “easily tolerated”.

**Q.** What about the anaesthetic effects (rabbit's eye) of the same compound?
**A.** Its anaesthetic effects is “neither anaesthetic effects”.

**Q.** What about the irritant effects (rabbit's eye) of the same compound?
**A.** The irritant effects was “nor irritant effects”.

**Q.** What about the “detection of antibodies by ELISA” value [1] of the same compound?
**A.** Its value is “not been possible to detect such antibodies”.

**Q.** What about the “toxic or adverse effects” value (rats [2]) of the same compound?
**A.** Its value is “no toxic or adverse effects”.

**Q.** And the mutagenicity classification (Salmonella strains)?
**A.** Its mutagenicity classification is “non-mutagenic”.

**Q.** And the “tolerance of intravenous doses” value (rats [3])?
**A.** Its value is “easily tolerated”.

**Q.** Which results are given for `CC(C)(C)NC[C@H](O)COc1nsnc1N1CCOCC1` [Timolol, reference compound]?
**A.** IOP lowering efficiency in relation to Timolol ([4]; 0.25% Timolol): 100%; Initial Pressure (Unstressed) ([4]; 0.25% Timolol group): 19.0 mm Hg; Pressure after 5 days of stress (Treatment starts) ([4]; 0.25% Timolol group): 30.0 mm Hg; Pressure after 10 days of stress (5 days of treatment) ([4]; 0.25% Timolol): 19.5 mm Hg; Change in IOP ([4]; 0.25% Timolol): -10.5 mm Hg; Change in pressure [5]: +1 mm Hg; Pressure after 5 1/5 [5]: 16 mm Hg; Initial Pressure [5]: 15 mm Hg

**Q.** How did the Duration of effect [6, 9] turn out when `CC[C@@H]1C(=O)OC[C@@H]1Cc1cncn1C` [pilocarpine nitrate, reference compound] was run?
**A.** Its Duration of effect is 120 min.

**Q.** What about the “Max. response Δ IOP” value [6, 9] of the same compound?
**A.** Its value is -5.0 mm Hg.

**Q.** What about the “Time to max. response” value [6, 9] of the same compound?
**A.** The value was 30 min.

**Q.** How did the “IOP lowering efficiency in relation to Timolol” value ([4]; 0.5% peptide) turn out when “H-Asn-Gly-Gly-Val-Cys(Acm)-NH2 (H-NGGVC(Acm)-NH2; also: acetate salt) [AsnGlyGlyValCys(Acm)NH2]” was run?
**A.** Its value is 150%.

**Q.** What about the “Pressure after 5 days of stress (Treatment starts)” value ([4]; 0.5% peptide group) of the same compound?
**A.** Its value is 32.0 mm Hg.

**Q.** And the “Pressure after 10 days of stress (5 days of treatment)” value [4, 10]?
**A.** Its value is 16.5 mm Hg.

**Q.** What about the “Initial Pressure (Unstressed)” value [4, 10] of the same compound?
**A.** The value was 19.0 mm Hg.

**Q.** And the “Change in IOP” value ([4]; 0.5% peptide)?
**A.** The value was -15.5 mm Hg.

**Q.** What about the “Pressure after 5 days” value ([4]; 0.1% peptide group) of the same compound?
**A.** The value was 28 mm Hg.

**Q.** And the “Initial Pressure” value ([4]; 0.1% peptide group)?
**A.** Its value is 18 mm Hg.

**Q.** And the “Pressure after 10 days (5 days of treatment)” value ([4]; 0.1% solution)?
**A.** Its value is 15.5 mm Hg.

**Q.** What about the “Pressure after 5 days” value ([4]; 1% peptide group) of the same compound?
**A.** The value was 32 mm Hg.

**Q.** What about the “Initial Pressure” value ([4]; 1% peptide group) of the same compound?
**A.** The value was 21 mm Hg.

**Q.** And the “Pressure after 10 days (5 days of treatment)” value ([4]; 1% solution)?
**A.** The value was 18 mm Hg.

**Q.** What about the penetration through tissue (anterior sclera) of the same compound?
**A.** The penetration through tissue was “found to penetrate both tissues”.

**Q.** What about the “Change in IOP After 21/2 days, Absolute” value ([5]; Example 7, 20 mg in 0.6 ml saline, 60 μl four times daily for 2.5 days, five stress units) of the same compound?
**A.** Its value is -4.7 mm/Hg.

**Q.** What about the “Change in IOP After 21/2 days, Relative to Control” value ([5]; Example 7, relative to 0.9% saline) of the same compound?
**A.** Its value is -9.2 mm/Hg.

**Q.** And the Change in pressure [5]?
**A.** The Change in pressure was 0 mm Hg.

**Q.** And the “Pressure after 5 1/5” value [5]?
**A.** The value was 14 mm Hg.

**Q.** And the “Initial Pressure” value [5]?
**A.** The value was 14 mm Hg.

**Q.** And the penetration through tissue [7]?
**A.** The penetration through tissue was “found to penetrate both tissues”.

**Q.** What about the “cell growth and ultrastructure” value [8, 11] of the same compound?
**A.** The value was “normal growth and ultrastructure”.

**Q.** And the “effect on collagen and fibronectin synthesis” value [8, 11]?
**A.** Its value is “no effect”.

**Q.** And the uptake of glycosamines ([8]; cultured bovine trabecular meshwork cells)?
**A.** Its uptake of glycosamines is “marked and significant decrease”.

**Q.** And the Duration of effect ([6]; Example 11, 0.5% solution)?
**A.** The Duration of effect was 120 min.

**Q.** What about the “Time to max. response” value ([6]; Example 11, 0.5% solution) of the same compound?
**A.** The value was 30 min.

**Q.** And the “Max. response Δ IOP” value ([6]; Example 11, 0.5% solution, IOP followed 3 hours)?
**A.** Its value is -5.0 mm Hg.

**Q.** And the Duration of effect ([6]; Example 12, Conc. 0.25%)?
**A.** The Duration of effect was 80 min.

**Q.** What about the “Max resp. Δ IOP” value ([6]; Example 12, Conc. 0.25%) of the same compound?
**A.** The value was -2.0 mm Hg.

**Q.** What about the “Time to max. resp.” value ([6]; Example 12, Conc. 0.25%) of the same compound?
**A.** Its value is 30 min.

**Q.** What about the AUC ([6]; Example 12, Conc. 0.25%) of the same compound?
**A.** Its AUC is 160 mm Hg×min.

**Q.** And the Duration of effect ([6]; Example 12, Conc. 0.5%)?
**A.** The Duration of effect was 120 min.

**Q.** And the “Max resp. Δ IOP” value ([6]; Example 12, Conc. 0.5%)?
**A.** Its value is -5.0 mm Hg.

**Q.** What about the “Time to max. resp.” value ([6]; Example 12, Conc. 0.5%) of the same compound?
**A.** Its value is 30 min.

**Q.** And the AUC ([6]; Example 12, Conc. 0.5%)?
**A.** The AUC was 360 mm Hg×min.

**Q.** What about the Duration of effect ([6]; Example 12, Conc. 1.0%) of the same compound?
**A.** The Duration of effect was 120 min.

**Q.** And the “Max resp. Δ IOP” value ([6]; Example 12, Conc. 1.0%)?
**A.** The value was -4.0 mm Hg.

**Q.** And the “Time to max. resp.” value ([6]; Example 12, Conc. 1.0%)?
**A.** The value was 30 min.

**Q.** What about the AUC ([6]; Example 12, Conc. 1.0%) of the same compound?
**A.** The AUC was 410 mm Hg×min.
